From patent US7589070B2, “Surface modification for improving biocompatibility” (The Children's Hospital of Philadelphia, priority 2001, dated 2009)

Experiments:
[1] = Surface phosphorus content of pamidronate-treated steel by SEM and EDAX; type: physicochemical
[2] = tested on: rat A10 arterial smooth muscle cells; assay: In vitro transduction of A10 cells by adenovirus GFP tethered to steel stents/rods; type: cell-based
Experimental: A type 5 adenovirus vector encoding GFP was used in this experiment. Stainless steel stents were incubated with amino-pamidronate, SPDP and anti-adenovirus knob F(ab)′2 antibody; amino-pamidronate and SPDP; amino-pamidronate only; or a stent only, without modification. The specific anti-adenovirus knob F(ab′)2 bound stents were incubated in the ad-GFP solution for 1 hour at 37 C. The virus loading in the incubation pool was 1×10^8 pfu/stent for all groups. The stents were then removed from the virus pool and rinsed with PBS followed by overnight washing. Images obtained by atomic force microscopy confirmed that high levels of vector immobilization could be achieved by this method.
The virus binding efficacy was evaluated in vitro using rat A10 arterial smooth muscle cells. A cell suspension of 5×10^4 A10 cells per ml of M199 medium was prepared with 10% FBS and 1% penicillin/streptomycin. The stent was rinsed with M199 medium once and equilibrated in the M199 medium at 37 C. for 10 minutes in a 6 well culture plate. The medium from the wells was aspirated, holding the stents, and 2 ml cell suspension was added to each well. Cell transduction was observed by fluorescence microscopy using a FITC filter. […] 90% of cells with adenovirus GFP anti-the antibody bound stent were transduced. […] Consequently, transduction efficiency is enhanced in vitro in antibody-bound stents compared to control stents.
A10 smooth muscle cells were transduced with SPDP-anti-adenovirus knob F(ab)′2 antibody-adenovirus GFP bound stainless steel rods, and pretreated with either 1.5 M pamidronate, 3.0 M pamidronate or 5.0 M pamidronate. Cell transduction was proportional to the pamidronate concentration used in a reaction. […] Accordingly, A10 cell transduction efficiency is related to pamidronate concentration used in the reaction.

**Q.** Which results are given for NCCC(O)(P(=O)(O)O)P(=O)(O)O [pamidronate, 3-amino-hydroxypropylidene-1,1-bisphosphonic acid]?
**A.** phosphorus percent by weight ([1]; stainless steel rod after reaction with pamidronate at pH 5, EDAX): 13%; phosphorus percent by weight ([1]; stainless steel rod after reaction with pamidronate at pH 7, EDAX): 1%; cell transduction (qualitative) ([2]; pretreated with 5 M pamidronate): did not show much increase in cell transduction; cell transduction (qualitative) ([2]; steel rods pretreated with 1.5 M pamidronate): much less cell transduction; cell transduction (qualitative) ([2]; steel rods pretreated with 3.0 M pamidronate): optimal
